Tests used:
Format in all cases: in vivo
[1] = tested on: upland rice (Oryza sp., var. Tebonnet, RICE); test: Post-emerge test, crop safety; conditions: post-emerge, 14 days after application, rating scale 0-100
How it was run: (§1)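 Visual ratings on a 0-100 scale (0 no damage, 100 all plants dead) were taken at 14 days after treatment. Rates of 15-1000 g ai/ha in acetone, 187 l/ha, were sprayed onto soil one day after planting (pre-emerge) or onto 2-3 leaf plants with 0.25% v/v surfactant (post-emerge).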

[2] = tested on: field corn (Zea mays L., var. Dekalb 535, CORN); test: Post-emerge test, crop safety; conditions: post-emerge, 14 days after application, rating scale 0-100
How it was run: as §1

[3] = tested on: redroot pigweed (Amaranthus retroflexus, AMARE); test: Pre-emerge test, greenhouse herbicide activity screening; conditions: pre-emerge, 14 days after application, scale 0-100
How it was run: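 Compounds in acetone were track-sprayed at 187 l/ha, 15–1000 g ai/ha, onto sandy loam pots. Pre-emerge seeds were sown one day before spraying, with surface watering afterwards. Post-emerge plants were at the 2–3 leaf stage and sprayed with 0.25% v/v non-ionic surfactant. Injury was rated 0–100 at 14 days.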

[4] = tested on: large crabgrass (Digitaria sanguinalis, DIGSA); test: as above; conditions: pre-emerge, 14 days after application, scale 0-100
How it was run: as §1

[5] = tested on: lambsquarters (Chenopodium album, CHEAL); test: as above; conditions: pre-emerge, 14 days after application, scale 0-100
How it was run: as §1

[6] = tested on: green foxtail (Setaria viridis, SETVI); test: as above; conditions: pre-emerge, 14 days after application, scale 0-100
How it was run: as §1

[7] = tested on: sicklepod (Cassia obtusifolia, CASOB); test: as above; conditions: pre-emerge, 14 days after application, scale 0-100
How it was run: as §1

[8] = tested on: johnsongrass (Sorghum halepense, SORHA); test: as above; conditions: pre-emerge, 14 days after application, scale 0-100
How it was run: as §1

[9] = tested on: barnyardgrass (Echinochloa crus-galli, ECHCG); test: as above; conditions: pre-emerge, 14 days after application, scale 0-100
How it was run: as §1

[10] = tested on: ivyleaf morningglory (Ipomoea hederacea, IPOHE); test: as above; conditions: pre-emerge, 14 days after application, scale 0-100
How it was run: as §1

[11] = tested on: velvetleaf (Abutilon theophrasti, ABUTH); test: as above; conditions: pre-emerge, 14 days after application, scale 0-100
How it was run: as §1

[12] = tested on: upland rice (Oryza sp., var. Tebonnet, RICE); test: Pre-emerge test, crop safety; conditions: pre-emerge, 14 days after application, scale 0-100
How it was run: (§2)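 Fourteen days after spraying, crop and weed injury was graded visually from 0, no effect, to 100, every plant dead. Test substances were dissolved in acetone and applied at 15–1000 g ai/ha with a flat-fan nozzle. Application was either pre-emergence, one day after sowing, or post-emergence at the 2–3 leaf stage.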

[13] = tested on: field corn (Zea mays L., var. Dekalb 535, CORN); test: Pre-emerge test, crop safety; conditions: pre-emerge, 14 days after application, scale 0-100
How it was run: as §2

[14] = tested on: large crabgrass (Digitaria sanguinalis, DIGSA); test: Post-emerge test, greenhouse herbicide activity screening; conditions: post-emerge, 14 days after application, rating scale 0-100
How it was run: as §1

[15] = tested on: lambsquarters (Chenopodium album, CHEAL); test: as above; conditions: post-emerge, 14 days after application, rating scale 0-100
How it was run: as §1

[16] = tested on: green foxtail (Setaria viridis, SETVI); test: as above; conditions: post-emerge, 14 days after application, rating scale 0-100
How it was run: as §1

[17] = tested on: sicklepod (Cassia obtusifolia, CASOB); test: as above; conditions: post-emerge, 14 days after application, rating scale 0-100
How it was run: as §1

[18] = tested on: johnsongrass (Sorghum halepense, SORHA); test: as above; conditions: post-emerge, 14 days after application, rating scale 0-100
How it was run: as §1

[19] = tested on: barnyardgrass (Echinochloa crus-galli, ECHCG); test: as above; conditions: post-emerge, 14 days after application, rating scale 0-100
How it was run: as §1

[20] = tested on: redroot pigweed (Amaranthus retroflexus, AMARE); test: as above; conditions: post-emerge, 14 days after application, rating scale 0-100
How it was run: as §1

[21] = tested on: ivyleaf morningglory (Ipomoea hederacea, IPOHE); test: as above; conditions: post-emerge, 14 days after application, rating scale 0-100
How it was run: as §1

[22] = tested on: common ragweed (Ambrosia artemisizfolia L., AMBEL); test: as above; conditions: post-emerge, 14 days after application, rating scale 0-100
How it was run: as §1

[23] = tested on: velvetleaf (Abutilon theophrasti, ABUTH); test: as above; conditions: post-emerge, 14 days after application, rating scale 0-100
How it was run: as §1

SMILES: COc1c(Cl)cc(F)c(-n2c(=O)cc(C(F)(F)F)n(C)c2=O)c1NC(=O)CSC(C)C [2-173]
- RICE phytotoxicity rating (crop damage) ([1]; 63 g ai/ha): 0
- RICE phytotoxicity rating (crop damage) ([1]; 250 g ai/ha): 10
- CORN phytotoxicity rating (crop damage) ([2]; 63 g ai/ha): 0
- CORN phytotoxicity rating (crop damage) ([2]; 250 g ai/ha): 25
- phytotoxicity rating AMARE ([3]; 63 g ai/ha): 30
- phytotoxicity rating AMARE ([3]; 250 g ai/ha): 100
- phytotoxicity rating DIGSA ([4]; 63 g ai/ha): 30
- phytotoxicity rating DIGSA ([4]; 250 g ai/ha): 80
- phytotoxicity rating CHEAL ([5]; 63 g ai/ha): 90
- phytotoxicity rating CHEAL ([5]; 250 g ai/ha): 100
- phytotoxicity rating SETVI ([6]; 63 g ai/ha): 40
- phytotoxicity rating SETVI ([6]; 250 g ai/ha): 80
- phytotoxicity rating CASOB ([7]; 63 g ai/ha): 30
- phytotoxicity rating CASOB ([7]; 250 g ai/ha): 70
- phytotoxicity rating SORHA ([8]; 63 g ai/ha): 0
- phytotoxicity rating SORHA ([8]; 250 g ai/ha): 10
- phytotoxicity rating ECHCG ([9]; 63 g ai/ha): 0
- phytotoxicity rating ECHCG ([9]; 250 g ai/ha): 20
- phytotoxicity rating IPOHE ([10]; 63 g ai/ha): 0
- phytotoxicity rating IPOHE ([10]; 250 g ai/ha): 40
- phytotoxicity rating ABUTH ([11]; 63 g ai/ha): 95
- phytotoxicity rating ABUTH ([11]; 250 g ai/ha): 100
- phytotoxicity rating RICE (crop damage) ([12]; 63 g ai/ha): 0
- phytotoxicity rating RICE (crop damage) ([12]; 250 g ai/ha): 50
- phytotoxicity rating CORN (crop damage) ([13]; 63 g ai/ha): 0
- phytotoxicity rating CORN (crop damage) ([13]; 250 g ai/ha): 20
- DIGSA phytotoxicity rating ([14]; 63 g ai/ha): 0
- DIGSA phytotoxicity rating ([14]; 250 g ai/ha): 0
- CHEAL phytotoxicity rating ([15]; 63 g ai/ha): 40
- CHEAL phytotoxicity rating ([15]; 250 g ai/ha): 65
- SETVI phytotoxicity rating ([16]; 63 g ai/ha): 0
- SETVI phytotoxicity rating ([16]; 250 g ai/ha): 0
- CASOB phytotoxicity rating ([17]; 63 g ai/ha): 50
- CASOB phytotoxicity rating ([17]; 250 g ai/ha): 70
- SORHA phytotoxicity rating ([18]; 63 g ai/ha): 0
- SORHA phytotoxicity rating ([18]; 250 g ai/ha): 0
- ECHCG phytotoxicity rating ([19]; 63 g ai/ha): 0
- ECHCG phytotoxicity rating ([19]; 250 g ai/ha): 0
- AMARE phytotoxicity rating ([20]; 63 g ai/ha): 50
- AMARE phytotoxicity rating ([20]; 250 g ai/ha): 50
- IPOHE phytotoxicity rating ([21]; 63 g ai/ha): 100
- IPOHE phytotoxicity rating ([21]; 250 g ai/ha): 80
- AMBEL phytotoxicity rating ([22]; 63 g ai/ha): 30
- AMBEL phytotoxicity rating ([22]; 250 g ai/ha): 50
- ABUTH phytotoxicity rating ([23]; 63 g ai/ha): 60
- ABUTH phytotoxicity rating ([23]; 250 g ai/ha): 100
